Measured values reported in ChEMBL document CHEMBL4325917, “Heterocyclic Amides as Kinase Inhibitors” (ACS Med Chem Lett, 2018).

Molecular target: T1, Receptor-interacting serine/threonine-protein kinase 1 (Homo sapiens, UniProt Q13546)
T1 sequence (Q13546 whole entry): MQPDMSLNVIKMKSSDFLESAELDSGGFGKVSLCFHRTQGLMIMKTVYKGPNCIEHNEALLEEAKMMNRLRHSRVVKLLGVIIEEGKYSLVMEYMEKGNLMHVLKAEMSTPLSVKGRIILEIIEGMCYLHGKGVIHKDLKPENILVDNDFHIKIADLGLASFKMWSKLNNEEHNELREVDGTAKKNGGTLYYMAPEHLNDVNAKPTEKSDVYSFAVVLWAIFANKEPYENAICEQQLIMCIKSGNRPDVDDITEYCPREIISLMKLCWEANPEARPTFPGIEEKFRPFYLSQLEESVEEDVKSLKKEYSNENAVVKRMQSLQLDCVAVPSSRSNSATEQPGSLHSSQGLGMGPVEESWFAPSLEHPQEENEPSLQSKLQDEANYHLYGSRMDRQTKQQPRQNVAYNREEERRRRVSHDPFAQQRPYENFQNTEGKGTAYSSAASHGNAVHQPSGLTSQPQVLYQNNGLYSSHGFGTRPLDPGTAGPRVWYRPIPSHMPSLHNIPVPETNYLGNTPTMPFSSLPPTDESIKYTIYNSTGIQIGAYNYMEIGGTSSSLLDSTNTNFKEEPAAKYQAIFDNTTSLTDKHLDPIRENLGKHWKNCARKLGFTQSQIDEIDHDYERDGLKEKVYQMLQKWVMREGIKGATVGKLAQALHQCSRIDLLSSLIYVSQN
Experiment: Binding affinity to RIP1 (unknown origin) by fluorescence polarization assay

IC50: 20 nM
SMILES: O=C(N[C@H]1CNc2cc(Cl)ccc2NC1=O)c1nnc(Cc2ccccc2)[nH]1
